Tests used:
[1] = tested on: RET fusion-positive cancers; settings: clinical phase 1 study; cited from earlier work
[2] = target: T1, human OATP1A2 (Homo sapiens, UniProt P46721); assay: Cellular uptake in OATP1A2-overexpressing HEK293 cells; type: in vitro ADME; settings: 5 µM, 2.5 min incubation, HEK293 OATP1A2
T1 construct: Werner Siegmund and Dr. Markus Keiser (University of Greifswald); host or cells: HEK293
T1 sequence (P46721 1-670): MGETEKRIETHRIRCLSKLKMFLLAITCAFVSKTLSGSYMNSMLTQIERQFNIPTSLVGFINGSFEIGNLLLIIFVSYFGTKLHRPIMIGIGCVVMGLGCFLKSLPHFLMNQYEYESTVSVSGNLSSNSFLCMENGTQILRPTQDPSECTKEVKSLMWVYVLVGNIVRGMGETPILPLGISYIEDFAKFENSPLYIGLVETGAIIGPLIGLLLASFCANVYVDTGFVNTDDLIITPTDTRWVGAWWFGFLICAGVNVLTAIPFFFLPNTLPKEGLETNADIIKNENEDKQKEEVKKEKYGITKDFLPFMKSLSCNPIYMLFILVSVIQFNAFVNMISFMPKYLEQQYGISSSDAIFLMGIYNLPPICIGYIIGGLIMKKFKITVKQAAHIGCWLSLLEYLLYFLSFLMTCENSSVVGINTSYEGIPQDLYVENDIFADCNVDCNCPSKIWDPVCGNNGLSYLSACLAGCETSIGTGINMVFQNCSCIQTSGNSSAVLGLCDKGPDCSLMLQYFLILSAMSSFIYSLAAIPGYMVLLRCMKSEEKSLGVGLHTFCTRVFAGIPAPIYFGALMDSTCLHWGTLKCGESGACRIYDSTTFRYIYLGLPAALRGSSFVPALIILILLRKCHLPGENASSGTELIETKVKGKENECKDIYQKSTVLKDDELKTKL
Procedure: HEK293 cells, vector-transfected or human (h)SLCO1A2, hSLCO1B1 or hSLCO1B3 cDNA-transfected were kind gifts from Prof. Werner Siegmund and Dr. Markus Keiser (University of Greifswald, Greifswald, Germany). All the HEK293 cell lines were maintained in DMEM supplemented with 10% (v/v) FBS, 1% penicillin–streptomycin mix at 37 °C in 5% (v/v) CO2 and 500 μg/mL G418. Cells were first seeded in 12-well plates [coated with 50 mg/L poly (l-lysine) and 50 mg/L poly (l-ornithine)] at a density of 1.0 × 10^5 cells/well. For the uptake study, in order to induce the expression of OATP transporters, the cell culture medium was replaced with culture medium supplemented with 5 mM sodium butyrate 24 h before performing the uptake assay.
The uptake transport study was performed as described previously. […] The Krebs–Henseleit solution was prepared from Krebs–Henseleit-buffer modified powder and supplemented with 25 mM NaHCO3 and 2.5 mM CaCl2 adjusted to pH 6.4 with 1 M HCL. At 2.5 min, the incubation buffer was removed, and uptake was terminated by adding 1 mL of ice-cold Krebs–Henseleit buffer, followed by two times washing with 1 mL of ice-cold Krebs–Henseleit buffer. […] The cellular protein amount was determined by the Bradford method using 10 μL of the cell lysates with bovine serum albumin as a standard.

[3] = patients; cited from earlier work
[4] = 8 h pharmacokinetic study in wild-type, Cyp3a-/- and Cyp3aXAV mice; settings: mouse, in vivo, po, 10 mg/kg; for concentration at 8 h / AUC(0-t) / Cmax / Tmax / SIC percentage of dose: female; for SIC percentage of dose: 8 h
Procedure: Many drugs and prodrugs are metabolized by CYP3A, which can therefore restrict their oral exposure.
Mice were housed and handled according to institutional guidelines complying with Dutch and EU legislation. All experimental animal protocols were evaluated and approved by the institutional animal care and use committee. Wild-type, Abcb1a/1b^-/-, Abcg2^-/-, Abcb1a/1b; Abcg2^-/-, Slco1a/1b^-/- male mice, and Cyp3a^-/- and Cyp3aXAV female mice, all of a >99% FVB genetic background, were used between 9 and 16 weeks of age. […] All experimental animal protocols (WP9450, 9669, 9760), including power calculations, designed under the nationally approved DEC/CCD project AVD301002016595, were evaluated and approved by the institutional animal care and use committee of The Netherlands Cancer Institute. […]
For the 4 h transporter experiments, tail-vein blood samples were collected at 0.125, 0.25, 0.5, 1, and 2 h time points after oral administration, respectively. For the CYP3A 8 h experiments, tail-vein blood sampling was performed at 0.25, 0.5, 1, 2, and 4 h, respectively. While for elacridar inhibition experiments, tail-vein blood samples were collected at 0.125, 0.25, 0.5, and 1 h time points after oral administration, respectively. Blood sample collection was performed using microvettes containing dipotassium EDTA. At the last time point in each experiment (2, 4 or 8 h), mice were anesthetized with 5% isoflurane and blood was collected by cardiac puncture. Blood samples were collected in Eppendorf tubes containing heparin as an anticoagulant. The mice were then sacrificed by cervical dislocation and brain, liver, kidney, lung, small intestine and testis were rapidly removed. Plasma was isolated from the blood by centrifugation at 9000× g for 6 min at 4 °C, and the plasma fraction was collected and stored at −30 °C until analysis. Organs were homogenized with 4% (w/v) bovine serum albumin and stored at −30 °C until analysis.
Pharmacokinetic parameters were calculated by noncompartmental methods using the PK solver software. The area under the plasma concentration–time curve (AUC) was calculated using the trapezoidal rule, without extrapolating to infinity. The peak plasma concentration (Cmax) and the time of maximum plasma concentration (Tmax) were estimated from the original (individual mouse) data. One-way analysis of variance (ANOVA) was used when multiple groups were compared and the Tukey post hoc correction was used to accommodate multiple testing. The two-sided unpaired Student’s t-test was used when treatments or differences between two specific groups were compared using the software GraphPad Prism 8 (GraphPad Software Inc., La Jolla, CA, USA). All the data were log-transformed before statistical tests were applied. Differences were considered statistically significant when p < 0.05. All data are presented as geometric mean ± SD.

COc1ccc(CN2C3CC2CN(c2ccc(-c4cc(OCC(C)(C)O)cn5ncc(C#N)c45)cn2)C3)cn1 [selpercatinib]
overall response rate [1]: 77% | uptake compared to vector control cells [2]: did not observe any significant increase in the uptake | AUC0–24h [3]: 51,600 ng/mL*h | average Cmax [3]: 2980 ng/mL | concentration at 8 h ([4]; Cyp3a-/- (>99% FVB genetic background), CLiver): 7900 ± 1270 ng/g | concentration at 8 h ([4]; Cyp3a-/- (>99% FVB genetic background), CSI (small intestine tissue concentration)): 6380 ± 930 ng/g | concentration at 8 h ([4]; Cyp3a-/- (>99% FVB genetic background), Cbrain): 86.2 ± 24.2 ng/g | concentration at 8 h ([4]; Cyp3aXAV (>99% FVB genetic background), CLiver): 4390 ± 755 ng/g | concentration at 8 h ([4]; Cyp3aXAV (>99% FVB genetic background), CSI (small intestine tissue concentration)): 5030 ± 347 ng/g | AUC(0-t) ([4]; FVB, Cyp3a-/-): 72200 ng·h/mL | Cmax ([4]; FVB, Cyp3a-/-): 12300 ng/mL | Tmax ([4]; FVB, Cyp3a-/-): 1.4 ± 1.3 h | SIC percentage of dose ([4]; FVB, Cyp3a-/-): 1.4 ± 0.6 % | concentration at 8 h ([4]; FVB, Cyp3a-/-, CSIC (small intestine contents concentration)): 44900 ng/g | AUC(0-t) ([4]; FVB, wild-type): 52300 ng·h/mL | Cmax ([4]; FVB, wild-type): 8560 ± 1300 ng/mL | Tmax ([4]; FVB, wild-type): 1.5 ± 1.3 h | SIC percentage of dose ([4]; FVB, wild-type): 2.5 ± 0.9% | concentration at 8 h ([4]; FVB, wild-type, CSIC (small intestine contents concentration)): 83900 ng/g | concentration at 8 h ([4]; FVB, wild-type, Cbrain): 82.4 ± 16.8 ng/g | AUC(0-t) [4]: 45800 ng·h/mL | Cmax [4]: 9480 ± 548 ng/mL | Tmax [4]: 0.29 ± 0.1 h | SIC percentage of dose [4]: 1.5 ± 0.5% | concentration at 8 h ([4]; CSIC (small intestine contents concentration)): 48500 ng/g | concentration at 8 h ([4]; Cbrain): 51 ± 15.2 ng/g | concentration at 8 h ([4]; wild-type (>99% FVB genetic background), CLiver): 8260 ± 1620 ng/g | concentration at 8 h ([4]; wild-type (>99% FVB genetic background), CSI (small intestine tissue concentration)): 7300 ± 1120 ng/g | abnormal external behavior (acute toxicity) [4]: did not observe any abnormal external behavior
